Columns and labels:
[1] = system: carrageenan-induced paw edema; assay: Carrageenan-induced rat paw edema; assay type: in vivo, Sprague Dawley rats; details: therapeutic dosing: 3 mg/kg orally one hour after 0.375% carrageenan; FIG. 8
Text: Carrageenan-induced paw edema has been extensively used in the evaluation of anti-inflammatory effects of various therapeutic agents and is a useful experimental system for assessing the efficacy of compounds to alleviate acute inflammation (Whiteley P E and Dalrymple S A, 1998. Models of inflammation: carrageenan-induced paw edema in the rat, in Current Protocols in Pharmacology. Enna S J, Williams M, Ferkany J W, Kenaki T, Porsolt R E and Sullivan J P, eds., pp 5.4.1-5.4.3, John Wiley & Sons, New York). The full development of the edema is neutrophil-dependent (Salvemini D. et al. (1996) Br. J. Pharmacol. 118: 829).
Female Sprague Dawley rats were used in groups of 8-12 and compounds of the invention were administered orally at up to 50 mg/kg 60 min prior to carrageenan exposure. The control group was administered orally an equal volume of vehicle (PBS). Edema in the paws was induced as previously described by injecting 50 μL of a 0.5% solution of carrageenan (Type IV Lambda, Sigma) in saline with a 27-G needle s.c. in the right foot pad. (See Whiteley P. E. and Dalrymple S. A. (1998), Models of inflammation: carrageenan-induced paw edema in the rat, in Current Protocols in Pharmacology, Enna S J, Williams M, Ferkany J W, Kenaki T, Porsolt R E and Sullivan J P, eds., pp 5.4.1-5.4.3, John Wiley & Sons, New York) The size of the tested foot of each animal was measured volumetrically with a plethysmometer immediately after injection of carrageenan solution and at various times up to 360 min after carrageenan induction.
Results of experiments with the compounds II-1-E, I-1-Z, and I-2-Z are shown in FIG. 1, FIG. 5, and FIG. 6, respectively.
Using the same procedure discussed above, the size of the foot of each animal was measured volumetrically before induction of edema, and at 1.5, 3, 4.5 and 6 h after the carrageenan injection. The absolute decreases in paw swelling at 6 h with 1, 10 and 50 mg/kg were 5±11%, 20±9% and 32±6% respectively. Statistical analyses were performed with repeated measures ANOVA followed by Dunnett's test for multiple comparisons.
Paw edema was induced in groups of eight Sprague Dawley rats by injecting 50 μL of a 0.375% solution of carrageenan X in saline, subcutaneously in the foot. After one hour animals were orally dosed once with PBS, compound I-1-Z at 50 mg/kg or with indomethacin at 3 mg/kg. The size of the paws were measured before induction of edema (baseline), and at 1.5, 3, 4.5 and 6 h after carrageenan injection. […] Statistical analyses were performed with repeated measures ANOVA followed by Dunnett's test for multiple comparisons.
Groups of eight Sprague Dawley rats were orally administered PBS, or 0.01, 0.1 or 1 mg/kg of compound I-1-Z. One hour later paw edema was induced in all animals by injecting 50 μL of a 0.5% solution of carrageenan X in saline, subcutaneously into the footpad. The size of the foot of each animal was measured volumetrically before induction of edema, and at 1.5, 3, 4.5 and 6 h after the carrageenan injection. The absolute decreases in paw swelling at 6 h with 0.1 and 1 mg/kg were 34±8 and 29±8% respectively. Statistical analyses were performed with repeated measures ANOVA followed by Dunnett's test for multiple comparisons.

Human SSAO = biological target: T1, Human SSAO (Homo sapiens, UniProt Q16853); assay: In vitro inhibition of SSAO activity, human umbilical cord homogenate, 14C-benzylamine; assay type: biochemical; design: Human SSAO, percent at given concentration: unit of the concentration uncertain; details: for IC50: human umbilical cord homogenate, read-out: Human SSAO IC50
T1 construct: rat lung or human umbilical cord homogenates were prepared by chopping the freshly removed tissue; from tissue; host or cells: human umbilical cord homogenate (25,000 g supernatant)
T1 sequence (Q16853 1-763): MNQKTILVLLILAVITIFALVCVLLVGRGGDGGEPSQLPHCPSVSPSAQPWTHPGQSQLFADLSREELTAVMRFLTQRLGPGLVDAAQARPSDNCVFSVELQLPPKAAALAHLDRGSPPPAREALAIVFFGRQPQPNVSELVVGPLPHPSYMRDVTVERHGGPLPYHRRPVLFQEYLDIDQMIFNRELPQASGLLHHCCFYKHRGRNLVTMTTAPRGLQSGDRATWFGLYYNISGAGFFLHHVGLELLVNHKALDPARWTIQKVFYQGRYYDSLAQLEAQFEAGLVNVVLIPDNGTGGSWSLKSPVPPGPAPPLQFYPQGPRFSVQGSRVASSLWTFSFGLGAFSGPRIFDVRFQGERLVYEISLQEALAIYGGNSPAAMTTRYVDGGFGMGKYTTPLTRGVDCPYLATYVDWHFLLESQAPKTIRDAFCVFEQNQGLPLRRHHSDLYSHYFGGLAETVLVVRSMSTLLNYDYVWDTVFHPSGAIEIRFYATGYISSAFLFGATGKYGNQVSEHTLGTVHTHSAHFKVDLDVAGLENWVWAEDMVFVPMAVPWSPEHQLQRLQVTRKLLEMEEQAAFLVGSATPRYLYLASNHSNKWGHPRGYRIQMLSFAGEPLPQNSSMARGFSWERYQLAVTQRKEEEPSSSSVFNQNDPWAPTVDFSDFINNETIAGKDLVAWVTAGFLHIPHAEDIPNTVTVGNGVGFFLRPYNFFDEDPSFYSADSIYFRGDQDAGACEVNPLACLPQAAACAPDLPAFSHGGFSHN
Procedure: SSAO activity was measured as described (Lizcano J M. Et al. (1998) Biochem J. 331:69). Briefly, rat lung or human umbilical cord homogenates were prepared by chopping the freshly removed tissue into small pieces and washing them thoroughly in PBS. The tissue was then homogenized 1:10 (w/v) for lung or 1:5 (w/v) for umbilical cord, in 10 mM potassium phosphate buffer (pH 7.8). Homogenates were then centrifuged at 1000 g at 4° C. for 10 min (lung) or 25,000 g for 30 min (umbilical cord); the supernatants were kept frozen until ready to use. Lung or umbilical cord homogenate was preincubated with clorgyline and pargyline at 1 μM to inhibit MAO-A and -B activity, respectively, and SSAO inhibitors were generally present at 1 nM-10 μM. The reaction was initiated by addition of 20 μM ^14C— benzylamine as substrate. The reaction was carried out at 37° C. in a final volume of 400 μL of 100 mM potassium phosphate buffer (pH 7.2) and stopped with 100 μl of 2M citric acid. Radioactively labeled products were extracted into toluene/ethyl acetate (1:1, v/v) containing 0.6% (w/v) 2,5-diphenyloxazole (PPO) before liquid scintillation counting.

melting point | IC50 (Human SSAO) [µM] | Structure (SMILES) | other results
– | 3 | COc1ccc(CCC(=O)CN)cc1 [IV-3, 1-amino-4-(4-methoxyphenyl)butan-2-one] | –
– | 3.7 | COc1cccc(CCC(=O)CN)c1 [IV-8, 1-amino-4-(3-methoxyphenyl)butan-2-one] | –
– | 1.5 | NCC(=O)CCc1cc(F)cc(C(F)(F)F)c1 [IV-10, 1-amino-4-(3-fluoro-5-(trifluoromethyl)phenyl)butan-2-one] | –

Further lines, the compound ahead of its results:

Structure (SMILES) | melting point | IC50 (Human SSAO) [µM] | other results
COc1ccc2c(c1)c(CC(=O)O)c(C)n2C(=O)c1ccc(Cl)cc1 [indomethacin, reference compound] | – | – | inhibition of paw edema at 6 h [1]: 67±8%
Cc1cccc(CC/C(=C\Cl)CN)c1.Cl [Compound I-48-E, (E)-3-Chloro-2-(3-methylphenylethyl)allylamine hydrochloride] | 95 to 97 °C | 10 | –
Cc1ccc(CC/C(=C\Cl)CN)cc1.Cl [Compound I-50-E, (E)-3-Chloro-2-(4-methylphenylethyl)allylamine hydrochloride] | 124 to 125 °C | 1 | –
NCC(=O)CCc1ccc(F)cc1 [IV-1, 1-amino-4-(4-fluorophenyl)butan-2-one] | – | – | Human SSAO, percent at given concentration (Human SSAO; @8 (unit uncertain)): 45%@8 mM
COc1cccc(CC/C(=C\Cl)CN)c1.Cl [Compound I-49-E, (E)-3-Chloro-2-(3-methoxyphenylethyl)allylamine hydrochloride] | 85 to 87 °C | 5.5 | –
NC/C(=C/Cl)CCc1ccc(Cl)cc1.O=C(O)C(F)(F)F [Compound I-43-Z, (E)-3-Chloro-2-(4-chlorophenylethyl)allylamine trifluoroacetate] | 68 to 70 °C | 1.4 | –
Cc1ccc(CC/C(=C/Cl)CN)cc1.Cl [Compound I-39-Z, (Z)-3-Chloro-2-(4-methylphenylethyl)allylamine hydrochloride] | 135 °C (dec.) | 1.2 | –
Cl.NC/C(F)=C\Cc1cc(C(F)(F)F)cc(C(F)(F)F)c1 [II-12-E, (E)-2-Fluoro-4-(3,5-ditrifluoromethylphenyl)-2-butenylamine hydrochloride] | 197 to 198 °C | – | Human SSAO, percent at given concentration (Human SSAO; @7 (unit uncertain)): 55%@7 mM
Cl.NC/C(=C/Cl)CCc1cc(F)cc(C(F)(F)F)c1 [Compound I-51-E, (E)-3-Chloro-2-(3-fluoro-5-trifluoromethylphenylethyl)allylamine hydrochloride] | 96 to 97 °C | – | Human SSAO, percent at given concentration (Human SSAO; @40 (unit uncertain)): 33%@40 mM
NC/C(=C/Cl)CCc1ccc(F)cc1.O=C(O)C(F)(F)F [Compound I-42-Z, (E)-3-Chloro-2-(4-fluorophenylethyl)allylamine trifluoroacetate] | 52 to 53 °C | – | Human SSAO, percent at given concentration (Human SSAO; @8 (unit uncertain)): 73%@8 mM
COc1ccccc1C/C=C(/F)CN.Cl [II-17-E, (E)-2-Fluoro-4-(2-methoxyphenyl)-2-butenylamine hydrochloride] | 133 to 134 °C | 4.5 | –
